Activity calls are given as the source filed them.

6 molecules from ChEMBL document CHEMBL1138076, “Synthesis and biological evaluation of lisofylline (LSF) analogs as a potential treatment for Type 1 diabetes” (Bioorg Med Chem Lett, 2006) can be followed below.

Data set [1] can be described thus: Stability in human liver microsomes at […] at pH 7.4. The format is ADME, Microsome. The conditions noted are these: read-out: Stability. In general terms: Liver microsomes are vesicles of endoplasmic reticulum, rich in cytochrome P450 enzymes.
Data set [2] concerns Pancreatic beta cell. The experiment in a line: Protection of cytokine-induced death of pancreatic beta cells at 0.1 uM. The format is functional, cell-based. The conditions noted are these: Mus musculus.
The test system of data set [3] is INS1. The data set can be described thus: Secretion of insulin in INS1 cells at 20 uM. The format is functional, cell-based. Conditions: Rattus norvegicus.
Data set [4] can be described thus: Half life in human liver. The format is ADME, organism-based.

With `C[C@@H](O)CCCCOc1nn(CCCC[C@@H](C)O)c(=O)c2ccccc12`, the remaining in data set [1] was 75%. Further, the result in data set [2] and in data set [3] was Active.

With `Cc1cnc2n(C)c(=O)n(CCCC[C@@H](C)O)c(=O)n12`, in data set [1], the remaining is 82%. Moreover, the outcome in data set [2] and in data set [3] was Active.

The term half-life denotes the time needed for the level to fall by half in the phase considered. Lower therefore signals rapid decline. Consider `C[C@@H](O)CCCCn1c(=O)c2c(ncn2C)n(C)c1=O` [LISOFYLLINE], for which, in data set [4], the half-life was < 3 min. Further, the result in data set [2] and in data set [3] was Active.

For `CC(C)NCC(O)COc1cccc2ccccc12` (configuration not stated) [PROPRANOLOL], the remaining in data set [1] is 34%.

`C[C@]12CC[C@H]3[C@@H](CCC4=CC(=O)CC[C@@]43C)[C@@H]1CC[C@@H]2O` [TESTOSTERONE]: in data set [1], the remaining was found to be 9%.

Take `CC(=O)CC(c1ccccc1)c1c(O)c2ccccc2oc1=O` (configuration not stated) [WARFARIN]: the remaining in data set [1] is 105%.
